The text below walks through data of patent US20070185069A1, “Anti-angiogenic activity of 2-methoxyestradiol in combination with anti-cancer agents” (priority 2005, published 2007).

In one series the target is T1, estrogen receptor α (Homo sapiens, UniProt P03372).
T1 sequence (P03372 1-595): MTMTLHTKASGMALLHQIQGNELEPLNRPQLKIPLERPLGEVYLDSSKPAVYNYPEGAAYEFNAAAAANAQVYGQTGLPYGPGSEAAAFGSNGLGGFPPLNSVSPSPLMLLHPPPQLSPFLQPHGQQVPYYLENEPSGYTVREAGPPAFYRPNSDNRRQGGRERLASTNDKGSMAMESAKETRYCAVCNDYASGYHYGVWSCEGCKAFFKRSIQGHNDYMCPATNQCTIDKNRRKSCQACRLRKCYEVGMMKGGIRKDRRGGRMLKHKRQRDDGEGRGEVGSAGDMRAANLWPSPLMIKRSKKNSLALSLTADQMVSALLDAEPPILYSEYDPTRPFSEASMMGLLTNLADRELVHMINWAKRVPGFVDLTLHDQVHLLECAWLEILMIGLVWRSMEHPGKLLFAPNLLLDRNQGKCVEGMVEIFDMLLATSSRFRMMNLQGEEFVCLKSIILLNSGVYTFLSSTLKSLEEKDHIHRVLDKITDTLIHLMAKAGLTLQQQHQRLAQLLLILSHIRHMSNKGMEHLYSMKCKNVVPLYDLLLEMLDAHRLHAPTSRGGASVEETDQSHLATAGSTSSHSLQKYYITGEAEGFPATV
The conditions noted are these: LaVallee et al. 2002; cited from earlier work.

Series [1] relates to U87 MG ectopic tumors. Description: Early stage U87 MG ectopic tumors, subcutaneous. Type of series: in vivo, Balb/c SCID mice. The conditions noted are these: study day 30; for inhibition of tumor growth: treatment begun at about 100 mm^3. The procedure: To assess whether 2ME2 or Temodarg® (Schering Corp. Kenilworth, N.J.) impact tumor growth of U87 MG, we designed the following experiment. Male Balb/c SCID mice were injected subcutaneously with 1×10^6 U87 MG tumor cells.

For the next series, the system named is PC3. Description: PC3 tumor model, XRT combination. The note with it: 2ME2 or both combined. Type of series: in vivo.
Another series is described as follows: in vivo. Here is the method: (§1) 2-methoxyestradiol (2ME2) is an endogenous metabolite of estradiol with antiproliferative, proapoptotic and antiangiogenic activity. […] A new formulation of 2ME2 with enhanced absorption, Panzem® NCD, is currently in clinical trials. In anticipation of Phase 2 clinical trials with Panzem® NCD, tests were conducted to assess its anti-tumor activity as either monotherapy or in combination with cytotoxic agents. In this preclinical study, the effectiveness of 2ME2 alone or with the antimetabolite, 5-Fluorouracil (5-FU) in the CT-26 syngeneic tumor model was evaluated. 5-FU is a well-recognized and commonly used antineoplastic agent used for treatment of colorectal cancer. […] Subsequent to these studies, male BALB/c mice were injected subcutaneously with 1×10^6 CT-26 cells. Starting 7 days after tumor cell inoculation when mean tumor volume was approximately 100 mm^3, cohorts of mice (n=5/group) began treatment with (a) vehicle alone; (b) 2ME@200mg/kg p.o. q.d.; (c) 5-FU 30mg/kg p.o. q.d.×5; (d) or a combination of 5-FU at 30 mg/kg p.o. q.d.×5 with 2ME2 at 50, 100, or 200 mg/kg p.o. q.d. […] Cohorts of mice receiving the combination of 5-FU and 2ME2 had oral administrations in the A.M. (5-FU) and the P.M. (2ME2).

The next series deals with HUVEC. Description: HUVEC proliferation assay (BRDU). Type of series: cell-based. The note with it: 48 hours after application of drug. The procedure:
(§2) U87 MG human glioblastoma cells were maintained in vitro in DMEM supplemented with 5% FBS, 2 mM glutamine, 1 mM sodium pyruvate, MEM vitamins and NEAA at 37° C. and 5% CO2. HUVEC were maintained in M 200 media. For both HUVEC and U87 MG proliferation assays, cells were plated in a 96 well plate at 5×10^3 cells per well and incubated at 37° C. overnight. At 24 hours, the media was aspirated and 2ME2 was administered to the cells at the following doses: […]. Proliferation was assessed 48 hours after application of drug by WST-1(U87 MG) or BRDU (HUVEC).

For the next series, the system named is RPMI-8226. Put plainly: RPMI-8226 xenograft model of myeloma. The class given is in vivo. The note with it: RPMI-8226 model; Velcade, 2ME2 or both combined.
The test system of a further series is H2122. Put plainly: H2122 tumor model, MST. Type of series: in vivo. The note with it: Paclitaxel, 2ME2 or both combined.
A further series concerns LLC met. Put plainly: LLC met tumor model. Type of series: in vivo. The conditions noted are these: 2ME2 or both combined.
The next series concerns U87MG. Put plainly: U87MG tumor model, CPT-11 combination. Type of series: in vivo. The conditions noted are these: CPT-11, 2ME2 or both combined.
Series [2] relates to CT-26 syngeneic colon carcinoma. Put plainly: CT-26 syngeneic tumor model, subcutaneous. Type of series: in vivo, BALB/c mice. The procedure: as §1
Series [3] deals with U87 MG human glioblastoma cells. Put plainly: U87 MG proliferation assay (WST-1). Type of series: cell-based. The note with it: U87 MG versus HUVEC. The procedure:
as §2

A further series concerns CT-26 cells. Put plainly: In vitro inhibition of proliferation of CT-26 cells. Type of series: cell-based. The conditions noted are these: preliminary in vitro studies.
The target in a further series is estrogen receptor β (Homo sapiens, UniProt Q92731). The conditions noted are these: LaVallee et al. 2002; cited from earlier work.
estrogen receptor β, sequence (Q92731 whole entry): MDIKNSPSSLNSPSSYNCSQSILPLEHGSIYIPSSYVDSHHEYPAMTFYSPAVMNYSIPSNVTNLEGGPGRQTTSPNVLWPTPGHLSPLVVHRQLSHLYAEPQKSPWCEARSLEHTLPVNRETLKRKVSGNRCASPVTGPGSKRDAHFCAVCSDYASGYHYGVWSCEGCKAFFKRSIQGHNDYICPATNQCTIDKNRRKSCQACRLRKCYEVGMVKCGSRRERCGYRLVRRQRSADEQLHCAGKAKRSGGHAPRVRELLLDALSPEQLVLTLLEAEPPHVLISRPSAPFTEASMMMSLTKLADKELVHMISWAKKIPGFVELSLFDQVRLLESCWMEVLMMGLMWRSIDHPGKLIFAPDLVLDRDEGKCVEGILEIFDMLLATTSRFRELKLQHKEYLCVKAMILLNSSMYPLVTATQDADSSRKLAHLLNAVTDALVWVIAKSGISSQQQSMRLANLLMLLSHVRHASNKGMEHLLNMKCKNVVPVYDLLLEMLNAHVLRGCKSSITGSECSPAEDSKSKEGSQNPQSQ
The subject of series [4] is U87 MG ectopic tumors. Description: Late stage U87 MG glioblastoma xenograft tumor model. Type of series: in vivo, mice. The conditions noted are these: for %Δ (Percent change in tumor volume from start of treatment): U87MG model, Temodar, 2ME2 or both combined; for inhibition of tumor growth: study day 28, treatment begun at about 300 mm^3, 2ME2 400 mg/kg p.o., q.d., Temodar 42 mg/kg p.o., q.d.×5. The procedure: In a second preclinical study the effectiveness of 2ME2 alone or in combination with Temodar® in the U87 MG glioblastoma xenograft tumor model was evaluated. Given the effectiveness of Temodar® at the maximally tolerated dose against 100 mm^3 tumor burden, we altered the treatment strategy such that treatment was initiated when mean tumor volume was approximately 300 mm^3. Cohorts of mice received treatment with either vehicle control, 2ME2 400 mg/kg p.o., q.d., Temodar® 42 mg/kg p.o., q.d×5, or 2ME2 400 mg/kg p.o., q.d. combined with Temodar® 42 mg/kg p.o., q.d.×5. Mice treated with the combination of 2ME2 and Temodar® received oral administration in the PM and AM, respectively.

Series [5] concerns vascular endothelial cell proliferation. The note with it: Ingber et al. 1990; cited from earlier work.
The nature of series [6]: Separate tolerability study of Temodar. Details: species or system mice. The note with it: mouse, in vivo, po, q.d.×5; read-out: maximally tolerated dose (MTD). Here is the method: Results: On study day 30, the mean tumor volume of the vehicle control animals was approximately 3000 mm^3. […] Using this dose and regimen in this model, Temodar® blocked U87 MG tumor growth by 98% (T/C =0.02).

[7] abbreviates: CT-26 model (Table 1), 5-FU, 2ME2 or both combined.

Where “and” joins values, the source holds several entries; their conditions need not be identical. Equal entries are not always repeated.

Take `COc1cc2c(cc1O)CC[C@@H]1[C@@H]2CC[C@]2(C)[C@@H](O)CC[C@@H]12` [2ME2, 2-methoxyestradiol]: the “affinity for estrogen receptor α” value on estrogen receptor α is recorded as “low affinity”. Besides, the T/C in the series with U87 MG ectopic tumors [1] (2ME2 200 mg/kg p.o., q.d.) is on record as 0.61; in the series on U87 MG ectopic tumors [1] (2ME2 400 mg/kg p.o., q.d.), 0.61; in the series on RPMI-8226 it was 0.66; with LLC met (Cisplatin), 0.37; with LLC met (Paclitaxel) it was 0.37; in [2] (setting [7]), 0.37. Also, the T/C in [2] (study date 29, agent alone (2ME2 200 mg/kg p.o. q.d.; 5-FU 30 mg/kg p.o. q.d.×5)) was 0.79 and 0.51. The “inhibition of tumor growth” value is listed as “approximately 40%” with U87 MG ectopic tumors [1] (2ME2 200 mg/kg p.o., q.d.); “approximately 40%” in the series with U87 MG ectopic tumors [1] (2ME2 400 mg/kg p.o., q.d.); 20% in the series on U87 MG ectopic tumors [4]. Besides, in the series on PC3, the “T − C (Difference in tumor doubling time)” value stood at 0 days. In “in vivo” (CT-26 bearing BALB/c mice), the “mean changes in body weight as a consequence of treatment” value was “moderate to no change”. Further, the figures for the half-inhibitory concentration (IC50) in the series with HUVEC and in the series on CT-26 cells were 463 nM and 3000 nM, respectively. Also, the MST in the series on H2122 was determined as 17 days. The “%Δ (Percent change in tumor volume from start of treatment)” value in the series with U87MG was 890%; with U87 MG ectopic tumors [4] it was 333%. Besides, in series [3], the “anti-proliferative dosage on glioblastoma cells relative to dosage with antiangiogenic effect on HUVEC” value was “nearly five times”. Also, at estrogen receptor β, the “affinity for estrogen receptor β” value is “low affinity”.
Take `O=c1[nH]cc(F)c(=O)[nH]1` [5-FU, 5-Fluorouracil]: the MTD at 5 days in the series “in vivo” (male, mouse, in vivo, po) worked out at 30 mg/kg. The “mean changes in body weight as a consequence of treatment” value in “in vivo” (mouse, in vivo) is “moderate to no change”. Further, in series [2] (setting [7]), the T/C was determined as 0.38.
Turning to `CO[C@@H]1[C@H](OC(=O)NC(=O)CCl)CC[C@]2(CO2)[C@H]1[C@@]1(C)O[C@@H]1CC=C(C)C` [AGM-1470], the “half-maximal inhibition of vascular endothelial cell proliferation at lower concentration than tumor cell proliferation” value in series [5] is 4 logs.
Consider `N.N.[Cl][Pt][Cl]` [Cisplatin, reference compound], for which the T/C in the series with LLC met (Cisplatin) is on record as 0.19.
Consider `CC(=O)O[C@H]1C(=O)[C@@]2(C)[C@H]([C@H](OC(=O)c3ccccc3)[C@]3(O)C[C@H](OC(=O)[C@H](O)[C@@H](NC(=O)c4ccccc4)c4ccccc4)C(C)=C1C3(C)C)[C@]1(OC(C)=O)CO[C@@H]1C[C@@H]2O` [Paclitaxel, reference compound], for which the MST in the series on H2122 was found to be 24 days. Moreover, in the series on LLC met (Paclitaxel), the T/C is on record as 0.38.
As for `Cn1nnc2c(C(N)=O)ncn2c1=O` [Temodar ®, reference compound], in the series on U87 MG ectopic tumors [1] (Temodar 42 mg/kg p.o., q.d.×5), the T/C is given as 0.02 and the “inhibition of tumor growth” value is reported as 98%. Further, in [6], the MTD at 5 days was found to be 42 mg/kg. Also, in the series on U87 MG ectopic tumors [4], the “%Δ (Percent change in tumor volume from start of treatment)” value is 266% and the “inhibition of tumor growth” value is 34%.
As for `CC(C)C[C@H](NC(=O)[C@H](Cc1ccccc1)NC(=O)c1cnccn1)B(O)O` [Velcade, reference compound], the T/C in the series with RPMI-8226 is 0.64.
